Measured values from patent US6441030B1, “3-phenyl-pyrones” (Bayer Aktiengesellschaft, priority 1998, dated 2002).

How the values were obtained:
Format in all cases: in vivo
[1] = test system: larvae of the mustard beetle (Phaedon cochleariae); experiment: Phaedon larvae test (Example C); details: active compound concentration of 0.1% in the preparation; cabbage leaves (Brassica oleracea) dipped
Procedure: Phaedon Larvae Test Solvent: 7 parts by weight of dimethylformamide Emulsifier: 1 part by weight of alkylaryl polyglycol ether […] Cabbage leaves (Brassica oleracea) are treated by being dipped into the preparation of active compound of the desired concentration and are populated with larvae of the mustard beetle (Phaedon cochleariae) while the leaves are still moist.

Myzus persicae = experiment: Critical concentration test/root-systemic action, Myzus persicae (Example H); details: active compound concentration of 1.25 ppm in the soil; broad beans; populated after 7 days, evaluated after a further 7 days
Procedure: (§1) Critical Concentration Test/Root-systemic Action Test insect: Myzus persicae Solvent: 4 parts by weight of dimethylformamide Emulsifier: 1 part by weight of alkylaryl polyglycol ether To prepare a suitable preparation of active compound, 1 part by weight of active compound is mixed with the stated amount of solvent, the stated amount of emulsifier is added and the concentrate is diluted with water to the desired concentration. The preparation of active compound is mixed intimately with the soil. The concentration of the active compound in the preparation is virtually immaterial, only the amount by weight of active compound per volume unit of soil, which is stated in ppm (=mg/ml), being decisive. The treated soil is filled into 250 ml pots and pre-germinated broad beans are planted in these. Thus, the active compound can be taken up by the plant roots from the soil and then transported into the leaves. To assess the root-systemic effect, the leaves are populated with the abovementioned test animals after 7 days. After a further 7 days, evaluation is carried out by counting or estimating the dead animals. The root-systemic action of the active compound is derived from the number of animals killed. It is 100% if all test animals have been killed and 0% when the number of test insects that are still alive is the same as for the untreated control.

Aphis fabae = experiment: Critical concentration test/root-systemic action, Aphis fabae (Example G); details: active compound concentration of 1.25 ppm in the soil; broad beans; populated after 7 days, evaluated after a further 7 days
Procedure: as §1, with “Aphis fabae” for “Myzus persicae”, “(=mg/l),” for “(=mg/ml),”

Cc1cc(Cl)ccc1-c1c(O)c(C)c(-c2ccccn2)oc1=O [Example 1, 3-(2-methyl-4-chloro-phenyl)-4-hydroxy-5-methyl-6-(pyrid-2-yl)-pyrone]
100 per cent: efficacy (kill in %) [1] | efficacy (root-systemic action) (Myzus persicae) | efficacy (root-systemic action) (Aphis fabae)
